What was measured:
Typhlodromus pyri = test: LR50; higher = less toxic; details: acute; duration: 7 days; reproduction
Tagia sp. = details: acute; duration: 14 days; mortality
Daphnia magna = details: chronic/long-term; duration: 21 days
Apis mellifera = details: acute; oral; unspecified; mortality
Oryctolagus sp. = details: developmental; development

In the case of CC(C)OC(=O)N[C@H](C(=O)N[C@H](C)c1nc2ccc(F)cc2s1)C(C)C [Benthiavalicarb-isopropyl], the LR50 (Typhlodromus pyri) is reported as 290 g/ha, the LD50 (Rattus norvegicus; acute, oral, mortality) is reported as > 5000 mg/kg and the NOAEL (Rattus norvegicus; chronic, duration: 2 years, clinical chemistry) is reported as 9.9 mg/kg-day. The NOAEL (Rattus norvegicus; reproduction developmental, organ weight) was 10 mg/kg-day, the LC50 (Tagia sp.) was > 500 mg/kg and the NOEC (Daphnia magna) was 3 mg/L. The LD50 (Apis mellifera) was > 100 µg/piece, the LC50 (Oncorhynchus mykiss; acute, duration: 96 hours, mortality) was > 10 mg/L and the NOEC (Oncorhynchus mykiss; chronic/long-term, duration: 28 days) was 1 mg/L. For the same molecule, the LC50 (Colinus virginianus; acute, oral, diet, mortality) was > 937 mg/kg-day, the LD50 (Colinus virginianus; acute, oral, mortality) was > 2000 mg/kg and the NOEL (Colinus virginianus; reproduction developmental, duration: 24 weeks) was 105 mg/kg-day. It also gave an NOAEL (Oryctolagus sp.) of 20 mg/kg-day.

From EPA's ToxValDB 9.5 (doi:10.2903/j.efsa.2007.107r)
